How the values were obtained:
Assay type in all cases: physicochemical
[1] = Stability of Form I polymorph on exposure to water vapour (XRPD and water content analyses); settings: moisturized alongside a dish of water in a bag sealed under nitrogen for 19 h
Procedure: Sodium salt of 2-amino-3-(4-bromobenzoyl)phenylacetic acid, Form I polymorph (0.6 g) was placed in a drying dish alongside a dish containing water (20 g) in a plastic bag. The bag was sealed under nitrogen and the product allowed to moisturize for 19 h.

[2] = Stability of polymorph towards atmospheric moisture (hydration and conversion); settings: must be protected from atmospheric moisture, hydrates to Form I
Source text: If so desired, the above-described procedures for producing bromfenac sodium Form I may be adapted and modified so as to provide a product that is a mixture of bromfenac sodium Form I and bromfenac sodium Form II. Bromfenac sodium Form II is a polymorph that is believed to be a monohydrate of bromfenac sodium, i.e., containing one water molecule per molecule of bromfenac sodium, and characterized by a powder x-ray diffraction pattern having main peaks expressed as 2-theta at about 11.3, 14.4, 16.5, 17.3, 18.5, 19.4, 20.7, 21.0, 22.7, 29.0, 31.8, 34.1 and 36.1 degrees. Drying the crystalline product initially obtained in the crystallization process described above under a vacuum results in the removal of some water of hydration from the sesquihydrate and the formation of the Form II polymorph, as evidenced by XRPD. The vacuum drying conditions may be adjusted so as to vary the Form II polymorph content of the product obtained. For example, higher drying temperatures, lower pressures, and increased drying times will generally all increase the amount of bromfenac sodium Form II present. It is believed that such parameters may be selected so as to provide bromfenac sodium Form II in substantially pure form (i.e., substantially free of any bromfenac sodium Form I or any other polymorph). […]

[3] = Water adsorption under wet nitrogen hydration conditions in vacuum oven; settings: 30-35° C. vacuum oven (5 mm Hg), 17 hours
[4] = Rate of dissolution in water; settings: compared with bromfenac sodium Form I or other hydrated forms

Question: With Nc1c(CC(=O)[O-])cccc1C(=O)c1ccc(Br)cc1.Nc1c(CC(=O)[O-])cccc1C(=O)c1ccc(Br)cc1.O.O.O.[Na+].[Na+] [Bromfenac sodium Form I, sodium salt of 2-amino-3-(4-bromobenzoyl)phenylacetic acid, sesquihydrate] as the compound, how does the “change in polymorphic form (XRPD and water content analyses)” value [1] read?
Answer: The value was “no change in polymorphic form”.

Question: With Nc1c(CC(=O)[O-])cccc1C(=O)c1ccc(Br)cc1.[Na+] [Bromfenac sodium Form II, sodium salt of 2-amino-3-(4-bromobenzoyl)phenylacetic acid] as the compound, how does the “stability of the polymorph” value [2] read?
Answer: The value was “not stable”.

Question: Which “water content of sample after wet nitrogen hydration conditions” value [3] does the source give for Nc1c(CC(=O)[O-])cccc1C(=O)c1ccc(Br)cc1.[Na+] [Bromfenac sodium Form III, sodium salt of 2-amino-3-(4-bromobenzoyl)phenylacetic acid] here?
Answer: Its value is “did not change”.

Question: What about the “rate of dissolution in water” value [4] of the same compound?
Answer: Its value is “significantly lower”.
